Data taken from patent US9999619B2, “Piperidin-4-yl azetidine derivatives as JAK1 inhibitors” (Incyte Corporation, priority 2010, dated 2018).

Legend:
Assay type in all cases: biochemical
[1] = target: human JAK1 (a.a. 837-1142); experiment: In vitro JAK kinase assay (HTRF, phosphorylation of a biotinylated peptide), JAK1; settings: ratio of JAK2 IC50 to JAK1 IC50, measured at 1 mM ATP
How it was run: (§1)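 Phosphorylation of a biotinylated peptide by purified His-tagged JAK catalytic domains (insect-cell baculovirus expression) ran 1 hr at room temperature. After stopping with EDTA, Eu-Py20 and SA-APC were bound for 40 minutes and HTRF measured.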

[2] = target: human JAK1 (a.a. 837-1142) (Homo sapiens, UniProt P23458); experiment: as above; settings: measured at 1 mM ATP
How it was run: as §1

[3] = target: Jak2 (a.a. 828-1132) (Homo sapiens (Human), UniProt O60674); experiment: In vitro JAK kinase assay (HTRF, phosphorylation of a biotinylated peptide), JAK2; settings: measured at 1 mM ATP
Sequence of Jak2 (a.a. 828-1132) (O60674 828-1132): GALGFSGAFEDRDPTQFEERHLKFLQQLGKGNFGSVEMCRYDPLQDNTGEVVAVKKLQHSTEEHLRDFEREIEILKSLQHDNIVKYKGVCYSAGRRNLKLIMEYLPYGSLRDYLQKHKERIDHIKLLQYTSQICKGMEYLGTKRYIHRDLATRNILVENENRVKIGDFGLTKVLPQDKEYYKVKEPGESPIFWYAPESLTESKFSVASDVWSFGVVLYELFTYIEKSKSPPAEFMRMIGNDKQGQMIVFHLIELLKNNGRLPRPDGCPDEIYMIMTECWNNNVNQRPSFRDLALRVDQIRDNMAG
How it was run: as §1

Structure (SMILES)	IC50 Ratio JAK2/JAK1 [1]	IC50 [2]	IC50 [3]
N#CCC1(n2cc(-c3c(F)cnc4[nH]ccc34)cn2)CN(C2CCN(C(=O)c3cncc(C(F)(F)F)n3)CC2)C1 [Example 352, [3-[4-(5-Fluoro-1H-pyrrolo[2,3-b]pyridin-4-yl)-1H-pyrazol-1-yl]-1-(1-{[6-(trifluoromethyl)pyrazin-2-yl]carbonyl}piperidin-4-yl)azetidin-3-yl]acetonitrile]	18.8	≤ 5 nM	10 to 50 nM
N#CCC1(n2cc(-c3ncnc4[nH]ccc34)cn2)CN(C2CCN(C(=O)c3ccc(-c4ccc(C#N)cc4)c(F)c3)CC2)C1 [Example 118, 4′-[(4-{3-(cyanomethyl)-3-[4-(7H-pyrrolo[2,3-d]pyrimidin-4-yl)-1H-pyrazol-1-yl]azetidin-1-yl}piperidin-1-yl)carbonyl]-2′-fluorobiphenyl-4-carbonitrile]	21.5	≤ 5 nM	10 to 50 nM
N#CCC1(n2cc(-c3ncnc4[nH]ccc34)cn2)CN(C2CCN(C(=O)c3c(F)cc(F)cc3F)CC2)C1 [Example 49, {3-[4-(7H-pyrrolo[2,3-d]pyrimidin-4-yl)-1H-pyrazol-1-yl]-1-[1-(2,4,6-trifluorobenzoyl)piperidin-4-yl]azetidin-3-yl}acetonitrile]	6.5	≤ 5 nM	≤ 10 nM
Cn1ccc(S(=O)(=O)N2CCC(N3CC(CC#N)(n4cc(-c5ncnc6[nH]ccc56)cn4)C3)CC2)n1 [Example 251, {1-{1-[(1-methyl-1H-pyrazol-3-yl)sulfonyl]piperidin-4-yl}-3-[4-(7H-pyrrolo[2,3-d]pyrimidin-4-yl)-1H-pyrazol-1-yl]azetidin-3-yl}acetonitrile]	4.9	≤ 5 nM	≤ 10 nM
N#CCC1(n2cc(-c3ncnc4[nH]ccc34)cn2)CN(C2CCN(C(=O)c3ccc(-c4ccc5cccnc5c4)c(F)c3)CC2)C1 [Example 134, {1-[1-(3-fluoro-4-quinolin-7-ylbenzoyl)piperidin-4-yl]-3-[4-(7H-pyrrolo[2,3-d]pyrimidin-4-yl)-1H-pyrazol-1-yl]azetidin-3-yl}acetonitrile]	6.7	≤ 5 nM	10 to 50 nM
N#CCC1(n2cc(-c3ncnc4[nH]ccc34)cn2)CN(C2CCN(C(=O)c3cc(F)c(F)c(F)c3)CC2)C1 [Example 4, {3-[4-(7H-pyrrolo[2,3-d]pyrimidin-4-yl)-1H-pyrazol-1-yl]-1-[1-(3,4,5-trifluorobenzoyl)piperidin-4-yl]azetidin-3-yl}acetonitrile]	10.2	5 to 20 nM	50 to 100 nM
N#CCC1(n2cc(-c3ncnc4[nH]ccc34)cn2)CN(C2CCN(C(=O)c3ccc(-c4ccncc4)c(F)c3)CC2)C1 [Example 117, {1-[1-(3-fluoro-4-pyridin-4-ylbenzoyl)piperidin-4-yl]-3-[4-(7H-pyrrolo[2,3-d]pyrimidin-4-yl)-1H-pyrazol-1-yl]azetidin-3-yl}acetonitrile]	10.0	≤ 5 nM	10 to 50 nM
N#CCC1(n2cc(-c3ncnc4[nH]ccc34)cn2)CN(C2CCN(C(=O)c3cc(F)cc(Br)c3)CC2)C1 [Example 29, {1-[1-(3-bromo-5-fluorobenzoyl)piperidin-4-yl]-3-[4-(7H-pyrrolo[2,3-d]pyrimidin-4-yl)-1H-pyrazol-1-yl]azetidin-3-yl}acetonitrile]	7.2	≤ 5 nM	≤ 10 nM
COc1ccc(CN2CCC(N3CC(CC#N)(n4cc(-c5ncnc6[nH]ccc56)cn4)C3)CC2)c(Cl)c1OC [Example 239, {1-[1-(2-chloro-3,4-dimethoxybenzyl)piperidin-4-yl]-3-[4-(7H-pyrrolo[2,3-d]pyrimidin-4-yl)-1H-pyrazol-1-yl]azetidin-3-yl}acetonitrile]	2.3	5 to 20 nM	10 to 50 nM
N#CCC1(n2cc(-c3ncnc4[nH]ccc34)cn2)CN(C2CCN(C(=O)OCc3cc(F)cc(F)c3)CC2)C1 [Example 395, 3,5-difluorobenzyl 4-{3-(cyanomethyl)-3-[4-(7H-pyrrolo[2,3-d]pyrimidin-4-yl)-1H-pyrazol-1-yl]azetidin-1-yl}piperidine-1-carboxylate]	24.4	≤ 5 nM	50 to 100 nM
N#CCC1(n2cc(-c3ncnc4[nH]ccc34)cn2)CN(C2CCN(C(=O)c3ccc(O)c(Cl)c3)CC2)C1 [Example 84, {1-[1-(3-chloro-4-hydroxybenzoyl)piperidin-4-yl]-3-[4-(7H-pyrrolo[2,3-d]pyrimidin-4-yl)-1H-pyrazol-1-yl]azetidin-3-yl}acetonitrile]	6.5	≤ 5 nM	10 to 50 nM
N#CCC1(n2cc(-c3c(F)cnc4[nH]ccc34)cn2)CN(C2CCN(C(=O)Nc3ccncc3C(F)(F)F)CC2)C1 [Example 331, 4-{3-(cyanomethyl)-3-[4-(5-fluoro-1H-pyrrolo[2,3-b]pyridin-4-yl)-1H-pyrazol-1-yl]azetidin-1-yl}-N-[3-(trifluoromethyl)pyridin-4-yl]piperidine-1-carboxamide]	10.8	≤ 5 nM	10 to 50 nM
N#CCC1(n2cc(-c3ncnc4[nH]ccc34)cn2)CN(C2CCN(C(=O)c3sc4cccc(F)c4c3Cl)CC2)C1 [Example 92, {1-{1-[(3-chloro-4-fluoro-1-benzothien-2-yl)carbonyl]piperidin-4-yl}-3-[4-(7H-pyrrolo[2,3-d]pyrimidin-4-yl)-1H-pyrazol-1-yl]azetidin-3-yl}acetonitrile]	2.8	≤ 5 nM	≤ 10 nM
COc1cc(OC)cc(C(=O)N2CCC(N3CC(CC#N)(n4cc(-c5ncnc6[nH]ccc56)cn4)C3)CC2)c1 [Example 33, {1-[1-(3,5-dimethoxybenzoyl)piperidin-4-yl]-3-[4-(7H-pyrrolo[2,3-d]pyrimidin-4-yl)-1H-pyrazol-1-yl]azetidin-3-yl}acetonitrile]	0.5	≤ 5 nM	≤ 10 nM
N#CCC1(n2cc(-c3ncnc4[nH]ccc34)cn2)CN(C2CC3CCC(C2)N3C(=O)c2ccc(F)c(F)c2)C1 (stereo not drawn) [Example 139, {1-[8-(3,4-difluorobenzoyl)-8-azabicyclo[3.2.1]oct-3-yl]-3-[4-(7H-pyrrolo[2,3-d]pyrimidin-4-yl)-1H-pyrazol-1-yl]azetidin-3-yl}acetonitrile]	4.4	≤ 5 nM	≤ 10 nM
N#CCC1(n2cc(-c3ncnc4[nH]ccc34)cn2)CN(C2CCN(C(=O)OCC3CCC3)CC2)C1 [Example 387, Cyclobutylmethyl 4-{3-(cyanomethyl)-3-[4-(7H-pyrrolo[2,3-d]pyrimidin-4-yl)-1H-pyrazol-1-yl]azetidin-1-yl}piperidine-1-carboxylate]	9.7	≤ 5 nM	10 to 50 nM
N#CCC1(n2cc(-c3ncnc4[nH]ccc34)cn2)CN(C2CCN(C(=O)Cc3ccccc3)CC2)C1 [Example 109, {1-[1-(phenylacetyl)piperidin-4-yl]-3-[4-(7H-pyrrolo[2,3-d]pyrimidin-4-yl)-1H-pyrazol-1-yl]azetidin-3-yl}acetonitrile]	1.1	20 to 30 nM	10 to 50 nM
CCN(CC)Cc1cc(C(=O)N2CCC(N3CC(CC#N)(n4cc(-c5ncnc6[nH]ccc56)cn4)C3)CC2)nc(C(F)(F)F)n1 [Example 373, {1-(1-{[6-[(diethylamino)methyl]-2-(trifluoromethyl)pyrimidin-4-yl]carbonyl}piperidin-4-yl)-3-[4-(7H-pyrrolo[2,3-d]pyrimidin-4-yl)-1H-pyrazol-1-yl]azetidin-3-yl}acetonitrile]	36.8	≤ 5 nM	10 to 50 nM
N#CCC1(n2cc(-c3ncnc4[nH]ccc34)cn2)CN(C2CCN(C(=O)Nc3ccccc3OC(F)F)CC2)C1 [Example 164, 4-{3-(cyanomethyl)-3-[4-(7H-pyrrolo[2,3-d]pyrimidin-4-yl)-1H-pyrazol-1-yl]azetidin-1-yl}-N-[2-(difluoromethoxy)phenyl]piperidine-1-carboxamide]	13.3	≤ 5 nM	10 to 50 nM
N#CCC1(n2cc(-c3ncnc4[nH]ccc34)cn2)CN(C2CCN(C(=O)c3ccc(-c4nc5ccccc5o4)c(F)c3)CC2)C1 [Example 137, {1-{1-[4-(1,3-benzoxazol-2-yl)-3-fluorobenzoyl]piperidin-4-yl}-3-[4-(7H-pyrrolo[2,3-d]pyrimidin-4-yl)-1H-pyrazol-1-yl]azetidin-3-y4}acetonitrile]	6.0	20 to 30 nM	> 100 nM
CC1CC(N2CC(CC#N)(n3cc(-c4ncnc5[nH]ccc45)cn3)C2)CCN1C(=O)C1CCC(F)(F)CC1 (stereo not drawn) [Example 151, {1-{1-[(4,4-difluorocyclohexyl)carbonyl]-2-methylpiperidin-4-yl}-3-[4-(7H-pyrrolo[2,3-d]pyrimidin-4-yl)-1H-pyrazol-1-yl]azetidin-3-yl}acetonitrile]	5.8	5 to 20 nM	50 to 100 nM
COc1ncccc1NC(=O)N1CCC(N2CC(CC#N)(n3cc(-c4ccnc5[nH]ccc45)cn3)C2)CC1 [Example 306, 4-{3-(cyanomethyl)-3-[4-(1H-pyrrolo[2,3-b]pyridin-4-yl)-1H-pyrazol-1-yl]azetidin-1-yl}-N-(2-methoxypyridin-3-yl)piperidine-1-carboxamide]	3.5	5 to 20 nM	10 to 50 nM
N#CCC1(n2cc(-c3ncnc4[nH]ccc34)cn2)CN(C2CCN(C(=O)c3cccc(OC(F)(F)F)c3)CC2)C1 [Example 21, (3-[4-(7H-pyrrolo[2,3-d]pyrimidin-4-yl)-1H-pyrazol-1-yl]-1-{1-[3-(trifluoromethoxy)benzoyl]piperidin-4-yl}azetidin-3-yl)acetonitrile]	3.2	5 to 20 nM	10 to 50 nM
